Patent US20100197584A1, “USE OF CURCUMIN TO BLOCK BRAIN TUMOR FORMATION IN MICE” (Research Foundations of the City University of- New York, priority 2007, published 2010)

Tested on: normal (non-tumor) brain cells
Assay: Normal brain cell viability (MTT on brain sections)
Type: in vivo
Settings: brain sections of untreated mice treated with 1 mM in PBS for one hour; positive control for cell death (FIG. 10)
Experimental: In each experiment, three mice were injected with 200 μl of PBS containing 3% DMSO, and three mice were injected with 200 μl of 667 μM curcumin (as described earlier) through the tail vein on three consecutive days by the method described above. On the fourth day, the mice were perfused with PBS through the heart, and the brains sectioned into 400-μm sections. Similar brain sections were also made from untreated mice which were then treated with 1 mM H2O2 in PBS for one hour, followed by incubation in H2O2-free DTM for three hours. These samples were used as a positive control for cell death.
The sections from each mouse were placed in 400 μl PBS in one well of a 48-well plate (i.e. three wells for three mice) and then treated with 200 μl of MTT (5 mg/ml) per well with gentle mixing at 37° C. for about 2 hours. Subsequently, 800 μl of the lysis buffer was added to each well, and the plate was sealed and incubated overnight at 37° C. with gentle mixing. Three 100-μl portions of the tissue solution obtained were next transferred to three respective wells of a 96-well plate (i.e. three wells per mouse and nine wells for three mice in one group) and absorbance at 570 nm was measured using a 96-well multi scanner auto-reader. Results obtained were normalized to protein levels and then expressed as percent of carrier-treated samples.

OO [H2O2, reference compound]
cell viability in brain slices (MTT activity): dramatic decrease
